pKi: −log10 of the molar value.
Columns and labels:
[1] = target: T1, Corticotropin-releasing factor receptor 1 (Homo sapiens, UniProt P34998); experiment: Binding affinity for human recombinant corticotropin releasing factor receptor 1
T1 sequence (P34998 whole entry): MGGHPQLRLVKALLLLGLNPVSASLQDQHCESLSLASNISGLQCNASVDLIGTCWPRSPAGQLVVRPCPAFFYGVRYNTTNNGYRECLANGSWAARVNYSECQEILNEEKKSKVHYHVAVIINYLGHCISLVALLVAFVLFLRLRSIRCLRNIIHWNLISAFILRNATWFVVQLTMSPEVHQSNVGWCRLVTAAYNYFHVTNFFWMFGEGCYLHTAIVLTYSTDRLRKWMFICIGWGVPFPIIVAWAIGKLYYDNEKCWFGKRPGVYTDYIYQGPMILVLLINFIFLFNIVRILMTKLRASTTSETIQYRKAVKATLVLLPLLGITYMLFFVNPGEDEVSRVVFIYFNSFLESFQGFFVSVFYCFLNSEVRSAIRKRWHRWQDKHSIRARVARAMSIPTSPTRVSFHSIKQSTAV

[2] = Bioavailability in rat (dose 30 mg/kg i.p.); format: ADME, organism-based; settings: in vivo, ip
[3] = The Tmax is the time taken to reach maximum concentration was measured in dog at dose 5 mg/kg after peroral administration.; format: ADME, organism-based, Canis lupus familiaris; set-up: dose 5 mg/kg, route oral; settings: in vivo, po
[4] = The bioavailability measured as F(%) in dog at dose 5 mg/kg after peroral administration.; format: ADME, organism-based, Canis lupus familiaris; settings: in vivo, po
[5] = The maximum concentration of the compound was measured in rat at dose 30 mg/kg after intraperitoneal administration.; format: ADME, organism-based; set-up: dose 30 mg/kg, route intraperitoneal; settings: in vivo, ip
[6] = The half life period was measured in rat at dose 1 mg/kg after intravenous administration.; format: ADME, organism-based; set-up: dose 1 mg/kg, route intravenous; settings: in vivo
[7] = The half life period was measured in rat at dose 12 mg/kg after intravenous administration.; format: ADME, organism-based; set-up: dose 12 mg/kg, route intravenous; settings: in vivo
[8] = The Tmax is the time taken to reach maximum concentration was measured in rat at dose 30 mg/kg after peroral administration.; format: ADME, organism-based; set-up: dose 30 mg/kg, route oral; settings: in vivo, po
[9] = The Tmax is the time taken to reach maximum concentration was measured in rat at dose 1 mg/kg after peroral administration.; format: ADME, organism-based; set-up: dose 1 mg/kg, route oral; settings: in vivo, po
[10] = The Tmax is the time taken to reach maximum concentration was measured in rat at dose 30 mg/kg after intraperitoneal administration.; format: ADME, organism-based; set-up: dose 30 mg/kg, route intraperitoneal; settings: in vivo, ip
[11] = The maximum concentration of the compound was measured in rat at dose 30 mg/kg after peroral administration.; format: ADME, organism-based; set-up: dose 30 mg/kg, route oral; settings: in vivo, po
[12] = The half life period was measured in dog at dose 5 mg/kg after intravenous administration.; format: ADME, organism-based, Canis lupus familiaris; set-up: dose 5 mg/kg, route intravenous; settings: in vivo
[13] = The clearance was measured in rat at dose 1 mg/kg after intravenous administration.; format: ADME, organism-based; set-up: dose 1 mg/kg, route intravenous; settings: in vivo
[14] = The clearance was measured in dog at dose 5 mg/kg after intravenous administration.; format: ADME, organism-based, Canis lupus familiaris; set-up: dose 5 mg/kg, route intravenous; settings: in vivo
[15] = The clearance was measured in rat at dose 12 mg/kg after intravenous administration.; format: ADME, organism-based; set-up: dose 12 mg/kg, route intravenous; settings: in vivo
[16] = The maximum concentration of the compound was measured in dog at dose 5 mg/kg after peroral administration.; format: ADME, organism-based, Canis lupus familiaris; set-up: dose 5 mg/kg, route oral; settings: in vivo, po
[17] = The maximum concentration of the compound was measured in rat at dose 1 mg/kg after peroral administration.; format: ADME, organism-based; set-up: dose 1 mg/kg, route oral; settings: in vivo, po

| Compound | pKi [1] | further results |
| --- | --- | --- |
| CCN(c1nc(C)nc(N(CCOC)CC2CC2)n1)c1c(C)cc(C)cc1C | 7.60 | – |
| CCN(CC)c1nc(C)nc(N(CC)c2ccc(N(C)C)cc2Br)n1 | 8.22 | – |
| CCN(Cc1ccccc1)c1cc(C)nc(N(CC)c2ccc(C(C)C)cc2Br)n1 | 7.77 | – |
| CCN(CC)c1cc(C)nc(N(CC)c2c(Br)cc(OC)cc2OC)n1 | 7.32 | – |
| CCCCN(CCC#N)c1nc(C)nc(N(CC)c2ccc(N(C)C)cc2C)n1 | 8.10 | – |
| CCN(c1nc(C)cc(C)n1)c1ccc(C(C)(C)C)cc1Br | < 7.00 | – |
| CCN(CC)c1cc(C)nc(N(CC)c2c(Br)cc(C(C)=O)cc2OC)n1 | 7.55 | – |
| CCC(CC)CNc1cc(C)nc(N(CC)c2ccc(C(C)C)cc2Br)n1 | 7.36 | – |
| CCCCN(Cc1nnnn1C)c1cc(C)nc(N(CC)c2ccc(C(C)C)cc2Br)n1 | 7.39 | – |
| CCN(c1nc(C)nc(N(CC2CC2)CC2CC2)n1)c1ccc(N(C)C)cc1C(F)(F)F | 8.30 | – |
| CCN(CC)c1cc(C)nc(N(CC)c2c(Br)cc(Br)cc2OC)n1 | 7.51 | – |
| C=CCN(c1nc(C)nc(N(CC)c2ccc(C(C)C)cc2Br)n1)C1CC1 | 8.30 | – |
| CCN(c1nc(C)nc(N2CCOCC2)n1)c1c(Br)cc(OC)cc1OC | 7.49 | bioavailability [2]: 47%; Tmax [3]: 0.5 h; bioavailability [4]: 20%; Cmax [5]: 2700 nM; half-life [6]: 7.6 h; half-life [7]: 15.6 h; Tmax [8]: 1.6 h; Tmax [9]: 0.3 h; Tmax [10]: 0.3 h; Cmax [11]: 753 nM; half-life [12]: 6 h; clearance [13]: 66.7 mL/min/kg; clearance [14]: 21.7 mL/min/kg; clearance [15]: 48.3 mL/min/kg; Cmax [16]: 730 nM; Cmax [17]: 21 nM |
| CCN(CC)c1cc(C)nc(N(CC)c2ccc(I)cc2Br)n1 | 8.05 | – |
| CCN(c1nc(C)cc(C)n1)c1ccc(N(C)C)cc1C | 7.27 | – |
| CCN(c1nc(C)cc(N2CCCCC2)n1)c1ccc(C(C)C)cc1Br | 7.54 | – |
| CCN(c1nc(C)cc(C)n1)c1ccc(OC)cc1Br | 7.46 | – |
| CCCN(CC1CC1)c1nc(C)nc(N(CC)c2ccc(N(C)C)cc2C(F)(F)F)n1 | 8.30 | – |
| CCN(c1nc(C)cc(C)n1)c1ccc(OC)cc1SC | 7.22 | – |

| Compound | pKi [1] | further results |
| --- | --- | --- |
| CCCN(CCC)c1nc(C)nc(N(CC)c2ccc(C(C)C)cc2Br)n1 | 8.40 | – |
| CCCCN(Cc1nn[nH]n1)c1cc(C)nc(N(CC)c2ccc(C(C)C)cc2Br)n1 | < 6.00 | – |
| CCCN(CCC#N)c1nc(C)nc(N(CC)c2ccc(N(C)C)cc2C(F)(F)F)n1 | 8.30 | – |
| CCCCN(CC)c1nc(C)nc(N(CC)c2ccc(OC(F)(F)F)cc2Br)n1 | 8.30 | – |
| CCCCN(CC)c1cc(C)nc(N(CC)c2ccc(C(C)=O)cc2Br)n1 | 8.10 | – |
| C=CCN(CC=C)c1nc(C)nc(N(CC)c2ccc(N(C)C)cc2Br)n1 | 8.52 | – |
| CCCCc1ccc(N(CC)c2nc(C)cc(C)n2)c(Br)c1 | < 7.00 | – |
| CCN(c1nc(C)cc(N2CCOCC2)n1)c1ccc(C(C)C)cc1Br | 7.66 | – |
| CCN(CC)c1nc(C)nc(N(CC)c2c(Br)cc(OC)cc2OC)n1 | 8.00 | – |
| CCCN(CCC#N)c1nc(C)nc(N(CC)c2ccc(N(C)C)cc2C)n1 | 8.15 | – |
| CCN(CC)c1cc(C)nc(N(CC)c2ccc(SC)cc2Br)n1 | 7.62 | – |
| CCCCN(CC)c1cc(C)nc(N(CC)c2ccc(I)cc2Br)n1 | 7.85 | – |
| C=CCNc1nc(C)nc(N(CC)c2ccc(C(C)C)cc2Br)n1 | 7.48 | – |
| CCCN(CCOC)c1cc(C)nc(N(CC)c2ccc(C(C)C)cc2Br)n1 | 7.96 | – |
| CCN(c1nc(C)cc(C)n1)c1c(Br)cc(C(C)C)cc1SC | 7.29 | – |
| CCN(c1nc(C)cc(N2CCNCC2)n1)c1ccc(C(C)C)cc1Br | < 6.00 | – |
| CCN(c1nc(C)cc(C)n1)c1ccc(C(C)=O)cc1SC | 7.05 | – |
| CCN(c1nc(C)cc(N(CCOC)CCOC)n1)c1ccc(C(C)C)cc1Br | 7.60 | – |
| CCN(CC)c1cc(C)nc(N(CC)c2c(Cl)cc(Br)cc2Cl)n1 | 7.62 | – |

Source: ChEMBL document CHEMBL1132596, “Non-peptide corticotropin-releasing hormone antagonists: syntheses and structure-activity relationships of 2-anilinopyrimidines and -triazines” (J Med Chem, 1999)
